Results from patent publication EP3510997B1, “SOFT GELATIN CAPSULES COMPRISING A SUSPENSION OF TADALAFIL” (Gap S.A., priority 2018, dated 2019).

Assays:
[1] = cited from earlier work
[2] = Solubility studies of tadalafil in vegetable oils; format: physicochemical; details: such as olive oil, sunflower oil, safflower oil, soybean oil
Text: Suspension formulations of tadalafil were initially produced in soybean oil, and in a mixture of hydrogenated and partially-hydrogenated soybean oil in order to produce a stable suspension.

For `CN1CC(=O)N2[C@H](c3ccc4c(c3)OCO4)c3[nH]c4ccccc4c3C[C@@H]2C1=O` [Tadalafil, (6R,12aR)-6-(Benzo[d][1,3]dioxol-5-yl)-2-methyl-2,3,12,12a], the “solubility in ethanol and other organic solvents” value ([1]; ethanol and other organic solvents) is given as “very slightly soluble”, the solubility in water ([1]; water) is given as “practically insoluble” and the “solubility in vegetable oils” value [2] is given as “practically insoluble”.
